The target in test [1] is T1, hP2X7R (Homo sapiens, UniProt Q99572).
T1 construct: expressed in transfected cells
T1 sequence (Q99572 1-595): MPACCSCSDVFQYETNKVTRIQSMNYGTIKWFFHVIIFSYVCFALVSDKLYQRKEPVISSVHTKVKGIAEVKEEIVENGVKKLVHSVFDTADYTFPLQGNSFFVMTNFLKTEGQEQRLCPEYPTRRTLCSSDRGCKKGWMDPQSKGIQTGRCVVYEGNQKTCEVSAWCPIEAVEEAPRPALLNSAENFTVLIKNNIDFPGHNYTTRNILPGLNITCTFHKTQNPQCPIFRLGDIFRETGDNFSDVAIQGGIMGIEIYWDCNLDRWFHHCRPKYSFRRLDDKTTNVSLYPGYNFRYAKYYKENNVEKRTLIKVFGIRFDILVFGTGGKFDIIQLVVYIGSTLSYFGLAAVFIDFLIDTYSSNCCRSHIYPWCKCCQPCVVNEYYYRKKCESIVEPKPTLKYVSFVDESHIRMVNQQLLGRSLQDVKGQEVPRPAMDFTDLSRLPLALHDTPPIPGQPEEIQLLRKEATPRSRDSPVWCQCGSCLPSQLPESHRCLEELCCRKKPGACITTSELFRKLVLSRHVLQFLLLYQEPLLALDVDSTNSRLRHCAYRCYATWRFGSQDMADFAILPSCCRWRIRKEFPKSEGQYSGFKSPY
Briefly: BzATP-induced Ca2+ responses in HEK293 cells expressing hP2X7R (FlexStation, Fura-2). It counts as cell-based. The settings on record: 300 μM BzATP. The text has this:
(§1) Human embryonic kidney (HEK) 293 cells stably expressing C-terminally EE-tagged human or rat P2X7R [42], [34], human P2X4R [15] and rat P2X3R [28] were generated in previous studies. A stable HEK293 cell line expressing C-terminally His-tagged human P2X7R was generated in this study and there was no difference in the experimental results using EE-tagged and His-tagged human P2X7R. These cells were maintained in Dulbecco’s Modified Eagle Medium (Life Technologies) supplemented with 10% foetal bovine serum and […] G418 in a tissue culture incubator at 37°C and 5% CO2 under humidified conditions. Cells were cultured in T25 flasks and split (every 3–4 days) once confluent.
FlexStation II and III (Molecular Devices) were used to measure intracellular Ca^2+ concentrations ([Ca^2+]i). Human or rat P2X7R-expressing HEK293 cells were plated in poly-D-lysine-coated 96-well plates (Molecular Devices) with 50,000 cells per well 24 h prior to use. […] Cells were excited at 340 nm and 380 nm alternatively and the emission at 510 nm recorded using a FlexStation. The ratio of fluorescence intensity (F340/F380) was used to indicate the [Ca^2+]i. The basal [Ca^2+]i was recorded for 60 s prior to the exposure to agonist and recording was continued for a further 120 s. […] The maximal changes in F340/F380 (ΔF340/380) were used for quantitative analysis. […]

Test [2] addresses T2, rP2X7R (Rattus norvegicus, UniProt Q64663).
T2 construct: expressed in transfected cells
T2 sequence (Q64663 1-595): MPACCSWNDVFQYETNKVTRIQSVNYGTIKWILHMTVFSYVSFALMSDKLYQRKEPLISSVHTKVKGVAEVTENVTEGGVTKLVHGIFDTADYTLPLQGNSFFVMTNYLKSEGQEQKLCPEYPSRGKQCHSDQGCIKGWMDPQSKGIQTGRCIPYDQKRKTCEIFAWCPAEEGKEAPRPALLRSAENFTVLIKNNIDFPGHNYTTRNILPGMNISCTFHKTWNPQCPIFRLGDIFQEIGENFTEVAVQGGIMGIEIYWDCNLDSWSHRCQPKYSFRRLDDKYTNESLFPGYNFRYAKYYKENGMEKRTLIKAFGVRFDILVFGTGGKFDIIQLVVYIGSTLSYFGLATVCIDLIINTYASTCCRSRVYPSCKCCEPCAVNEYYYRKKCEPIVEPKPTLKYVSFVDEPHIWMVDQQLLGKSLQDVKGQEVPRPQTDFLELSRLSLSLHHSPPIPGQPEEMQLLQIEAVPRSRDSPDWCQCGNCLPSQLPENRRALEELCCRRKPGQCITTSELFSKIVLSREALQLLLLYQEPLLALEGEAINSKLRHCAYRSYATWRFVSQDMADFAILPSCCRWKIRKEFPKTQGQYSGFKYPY
Briefly: BzATP-induced Ca2+ responses in HEK293 cells expressing rP2X7R (FlexStation, Fura-2). The settings on record: 300 μM BzATP. It counts as cell-based.
Text: as §1
FlexStation II and III (Molecular Devices) were used to measure intracellular Ca^2+ concentrations ([Ca^2+]i). Human or rat P2X7R-expressing HEK293 cells were plated in poly-D-lysine-coated 96-well plates (Molecular Devices) with 50,000 cells per well 24 h prior to use. […] Cells were excited at 340 nm and 380 nm alternatively and the emission at 510 nm recorded using a FlexStation. The ratio of fluorescence intensity (F340/F380) was used to indicate the [Ca^2+]i. The basal [Ca^2+]i was recorded for 60 s prior to the exposure to agonist and recording was continued for a further 120 s. […] The maximal changes in F340/F380 (ΔF340/380) were used for quantitative analysis.

Test [3] concerns the target T1, hP2X7R. The settings on record: known hP2X7R antagonists; cited from earlier work.

The inhibition is the drop in the measured response relative to a control, in per cent.

Take `O=C1CSC(=O)N1C(CCc1ccncc1)COc1ccc(-c2cccc([N+](=O)[O-])c2)cc1` (stereo not shown) [AZ11645373]: the “inhibition of BzATP-induced Ca^2+ responses (hP2X7R)” value in test [1] (200 nM AZ11645373 (Fig. 1 legend)) is 81.9 ± 5%. Besides, in test [2] (200 nM AZ11645373 (Fig. 1 legend), compared with BBG), the “inhibition of BzATP-induced Ca^2+ responses (rP2X7R)” value is “far less effective”. Further, in test [3], the “predicted energy binding score” value was -10.8 kcal/mol.
`CCOc1ccc(Nc2ccc(/C(=C3C=C/C(=[N+](/CC)Cc4cccc(S(=O)(=O)[O-])c4)C=C/3C)c3ccc(N(CC)Cc4cccc(S(=O)(=O)O)c4)cc3C)cc2)cc1` [BBG, brilliant blue G]: in test [1] (HEK293, compound at 10 μM, read-out: inhibition of BzATP-induced Ca^2+ responses (hP2X7R)), the inhibition at 10 µM stood at 71.5 ± 5%. For the same compound, the “inhibition of BzATP-induced Ca^2+ responses (rP2X7R)” value in test [2] (compound at 10 μM) is “strongly inhibited”.
For `CN([C@@H](Cc1ccc(OS(=O)(=O)c2cccc3cnccc23)cc1)C(=O)N1CCN(c2ccccc2)CC1)S(=O)(=O)c1cccc2cnccc12` [KN-62], in test [3], the “predicted energy binding score” value is -5.2 kcal/mol.
Turning to `C[S+]([O-])c1ccc(-c2nc(-c3ccncc3)c(-c3ccc(F)cc3)[nH]2)cc1` (stereo not shown) [SB203580], the “predicted energy binding score” value in test [3] is -8.75 kcal/mol.

The values are drawn from publication PMC5012888, “Structure-based identification and characterisation of structurally novel human P2X7 receptor antagonists” (Biochemical Pharmacology, 2016).
